Results on 7 compounds are retold here after PMC3558502, “Acaricide, Fungicide and Drug Interactions in Honey Bees (Apis mellifera)” (PLoS ONE, 2013).

Series [1] concerns honey bees (Apis mellifera). The series can be described thus: Lethal dose bioassay: topical sublethal pre-treatment (acaricide, fungicide or enzyme inhibitor), then topical acaricide dose series, 2009. The following applies: for interactive effect between pre-treatment and acaricide toxicity (in words): 2009 topical pre-treatments, partner named in the value; for LD10: from fitted dose-response lines, control pre-treatment, 2009 (Table S1). The protocol: Bees were first treated with a sublethal dose of either an acaricide, a fungicide, an antimicrobial drug, or an enzyme inhibitor. Bees were then treated with a range of lethal doses of an acaricide to estimate the dose-response curve. […] We tested 25 of the 6×6 possible acaricide-acaricide combinations, 24 of the 6×5 fungicide-acaricide combinations, 15 of the 6×3 antimicrobial-acaricide combinations and 9 of the 6×3 enzyme inhibitor-acaricide combinations. […] The fungicides propiconazole, fenbuconazole, metconazole and myclobutanil were tested in combination with a single acaricide, tau-fluvalinate.
(§1) Frames of late-stage brood were collected from these colonies and placed in a dark, humid incubator (Darwin Chambers Co., St. Louis, MO, model H024) at 34°C. Newly emerged adults were brushed from frames daily into screened wooden cages (21×14×12 cm) and weighed as a group to estimate the number of bees. Each cohort of 200–800 bees was provisioned with 1∶1 (w/w) granulated sugar dissolved in water and held for 3–4 days in the incubator.
Each treatment series was conducted using 3–4 day-old adult worker bees divided into 8–13 subgroups of 20 bees each. Bees were narcotized with carbon dioxide and each subgroup was placed in a separate wax-coated paper cup (177 cm^3; Solo S306, Highland Park, IL) covered with cotton cheesecloth and secured with two rubber bands. A maximum sublethal pre-treatment of an acaricide, fungicide, enzyme inhibitor, or solvent control, was then applied to bees in all subgroups. […] Sublethal doses used as pre-treatment for acaricides were determined in preliminary bioassays or previous studies and corresponded to doses less than or near the LD10 values determined in the current experiment. […] All doses were delivered topically in 1 µl of acetone and applied to the thoracic notum using a 50 µl syringe fitted in a repeating dispenser (Hamilton PB-600, Reno, NV). A control pre-treatment consisting of 1 µl of pure acetone was also included.
(§2) Groups of pre-treated bees were allowed to recover for 1 h to minimize mortality due to extended carbon dioxide anaesthetization. Each subgroup of approximately 20 bees, of the 8–13 dose-groups in the bioassay, was then anaesthetized again and treated topically with either an acetone solvent control or one of a range of 7–12 acaricide doses, including doses eliciting 0% and 100% mortality, and at least three doses causing intermediate mortality. After treatment sucrose water was provided to groups of treated bees through a punctured 1.5 ml microcentrifuge tube following dosing, and bees were returned to the 34°C incubator. […] Immobile bees were scored as dead. […] At least three replicate treatment series were performed for each combination of pre-treatment and acaricide. Separately diluted acaricide dose series and bees taken from different colonies were used for each replicate treatment.
(§3) Lines were fitted to dose-mortality data on a log-probit scale for each pretreatment-acaricide combination using ‘glm’ in the R statistical package. […] Interactive effects between acaricides and the various pre-treatments were determined with pairwise tests comparing the dose-response lines for bees receiving pre-treatments with bees receiving a control pre-treatment using a test analogous to ANCOVA [26]. The full model, which includes the dose of acaricide as a covariate, pre-treatment as a categorical factor and the interaction between acaricide dose and pre-treatment, was compared with two simplified models (Figure 3). A process of model simplification was undertaken in which the explanatory power of model terms was assessed by reference to the likelihood ratio [38]. The first simplified model lacks the interaction term and tests the interaction between pre-treatment and acaricide dose, essentially testing for differences in the slope of the two dose-response lines (also known as a test of the “hypothesis of parallelism” [26]).

The subject of series [2] is honey bees (Apis mellifera). In words: Lethal dose bioassay: antimicrobial drugs fed in sucrose syrup, then topical acaricide dose series, 2010. The following applies: for interactive effect between antimicrobial pre-treatment and acaricide toxicity (in words): 2010 oral pre-treatments, partner named in the value. Here is the method:
as §1, §2, §3

For another series, the system named is honey bees. In words: Estimated daily exposure and margin of safety of acaricide formulations. Details: species or system Apis mellifera. Particulars: LD10 divided by estimated daily dose. An excerpt: High sublethal doses were deliberately chosen as pre-treatments to make the magnitude of any interactive effect between the pre-treatment and acaricide as large as possible. However, to determine the hazard posed by acaricide interactions in bee hives, the actual exposure bees receive when treated with formulated acaricides must be considered. […] The LD10 can be determined from the fitted dose response lines (Table S1). The daily dose can be estimated by first determining the amount of active ingredient present in each acaricide formulation, correcting this value by the amount of active ingredient available for uptake by the bees (e.g. 10% of the total acaricide content in strip formulations is taken up by bees, [50]) and dividing this quantity by the number of days the acaricide formulation is present in the hive. The estimated daily dose calculated in this way can be validated using published pesticide residue data, [51].

The test system of series [3] is honey bees (Apis mellifera). Particulars: study conducted in 2008 using an identical protocol; cited from earlier work.
The subject of series [4] is honey bees (Apis mellifera). The series can be described thus: Lethal dose bioassay: tau-fluvalinate after PBO or SBI fungicide pre-treatment at 0.1, 1 or 10 nmol per bee, 2010. It is filed as in vivo. An excerpt: Acetone was also applied as a pre-treatment control.
Immobile bees were scored as dead.

Another series deals with Apis mellifera. Particulars: cited from earlier work.
The mark [5] stands for this setting: tau-fluvalinate topical dose series after acetone control pre-treatment.

“Also recorded” adds a separate entry of the source. Counter-ions that a name gives are not always drawn. Like-named read-outs stand apart in the source and are kept apart here.

With `CCOC(=O)/C=C\C(=O)OCC` [DEM, diethyl maleate], in series [1], the “interactive effect between pre-treatment and acaricide toxicity (in words)” value is “did not interact with any acaricide tested”.
Take `CC[C@H]1OC(=O)C[C@@H](O)[C@H](C)[C@@H](O[C@@H]2O[C@H](C)[C@@H](O[C@H]3C[C@@](C)(O)[C@@H](O)[C@H](C)O3)[C@H](N(C)C)[C@H]2O)[C@@H](CC=O)C[C@@H](C)C(=O)/C=C/C(C)=C/[C@@H]1CO[C@@H]1O[C@H](C)[C@@H](O)[C@@H](OC)[C@H]1OC` [tylosin]: the “interactive effect between antimicrobial pre-treatment and acaricide toxicity (in words)” value in series [2] is recorded as “did not interact with any acaricide tested”.
As to `Cc1ccc(/N=C/N(C)/C=N/c2ccc(C)cc2C)c(C)c1` [amitraz], in series [2], the “interactive effect between antimicrobial pre-treatment and acaricide toxicity (in words)” value is given as “this combination had no effect on acute mortality”. In addition, in series [1], the “interactive effect between pre-treatment and acaricide toxicity (in words)” value is given as “toxicity of amitraz was unchanged when bees were pre-treated with tau-fluvalinate; also recorded: oxalic acid pre-treatment reduced the toxicity of amitraz nearly four-fold”; the LD10 worked out at 0.92 µg/bee. In addition, the “margin of safety of acaricide formulations” value in the series with honey bees is listed as 2.0 to 7.8 fold.
Take `Cc1ccc(C(C)C)c(O)c1` [thymol]: the “margin of safety of acaricide formulations” value with honey bees is given as 2.0 to 7.8 fold.
For `CC(C)[C@@H](Nc1ccc(C(F)(F)F)cc1Cl)C(=O)OC(C#N)c1cccc(Oc2ccccc2)c1` (stereo partly shown) [tau-fluvalinate], the “LD50 of the acaricide” value in series [2] (2010, topical acaricide, bees fed control 1:1 sucrose syrup) is reported as 9.2 µg per bee; in series [1] (2009, topical, adult workers, pre-treatment: control, 1 µl acetone) it was 19.8 µg per bee. Besides, the “interactive effect between antimicrobial pre-treatment and acaricide toxicity (in words)” value in series [2] was “pretreating bees with oxytetracycline had no significant effect on the LD50 of tau-fluvalinate”. Also, the LD50 for tau-fluvalinate in series [3] is given as 6.75 µg per bee; in series [4] (2010, topical, pre-treatment: control (acetone)), 9.0 µg per bee. Further, the “increase in toxicity of tau-fluvalinate” value is roughly 2000 fold in series [1] (2009 experiments, prochloraz pre-treatment); 5 fold in series [1] (amitraz pre-treatment); 8 fold in series [1] (fenpyroximate pre-treatment); 1.4 to 2.3 fold in series [4] (pre-treated with any of the 5 fungicides or PBO at the 1 nmol dose); 12 to 74 fold in series [4] (pre-treated with any of the 5 fungicides or PBO at the 10 nmol dose). The “interactive effect between pre-treatment and acaricide toxicity (in words)” value in series [1] is “tau-fluvalinate toxicity was transitively increased when thymol was applied as a pre-treatment; also recorded: chlorothalonil increased the toxicity of both thymol and tau-fluvalinate; also recorded: Pyraclostrobin and boscalid applied together in a blend like Pristine moderately increased the toxicity of tau-fluvalinate”. The LD10 in series [1] is recorded as 3.08 µg/bee. The “interactive effect between SBI fungicide pre-treatment and tau-fluvalinate toxicity (in words)” value in series [4] (2010, SBI fungicides) is “an antagonistic interaction was observed at the lowest fungicide doses (0.1 nmol or approximately 0.03 µg per bee)”. The “interaction between tau-fluvalinate and PBO” value in series [4] (PBO 10 nmol dose level) came to 5.8 fold. The “dose-response line intercept ± SE” value in series [4] (setting [5]) is listed as -2.72 ± 0.24. Moreover, the “dose-response line slope ± SE” value in series [4] (setting [5]) is 2.85 ± 0.26.
Take `O=C(O)C(=O)O` [oxalic acid]: the LD10 with Apis mellifera is on record as 176.7c µg/bee.
On to `O=C(Nc1ccccc1-c1ccc(Cl)cc1)c1cccnc1Cl` [boscalid], for which the “interactive effect between pre-treatment and acaricide toxicity (in words)” value in series [1] was “did not interact with any acaricide tested”.
